The target of one series is T1, NADPH-oxidase (Homo sapiens, UniProt P04839).
T1 construct: endogenous in cells; host or cells: human neutrophils isolated from buffy coat
T1 sequence (P04839 1-570): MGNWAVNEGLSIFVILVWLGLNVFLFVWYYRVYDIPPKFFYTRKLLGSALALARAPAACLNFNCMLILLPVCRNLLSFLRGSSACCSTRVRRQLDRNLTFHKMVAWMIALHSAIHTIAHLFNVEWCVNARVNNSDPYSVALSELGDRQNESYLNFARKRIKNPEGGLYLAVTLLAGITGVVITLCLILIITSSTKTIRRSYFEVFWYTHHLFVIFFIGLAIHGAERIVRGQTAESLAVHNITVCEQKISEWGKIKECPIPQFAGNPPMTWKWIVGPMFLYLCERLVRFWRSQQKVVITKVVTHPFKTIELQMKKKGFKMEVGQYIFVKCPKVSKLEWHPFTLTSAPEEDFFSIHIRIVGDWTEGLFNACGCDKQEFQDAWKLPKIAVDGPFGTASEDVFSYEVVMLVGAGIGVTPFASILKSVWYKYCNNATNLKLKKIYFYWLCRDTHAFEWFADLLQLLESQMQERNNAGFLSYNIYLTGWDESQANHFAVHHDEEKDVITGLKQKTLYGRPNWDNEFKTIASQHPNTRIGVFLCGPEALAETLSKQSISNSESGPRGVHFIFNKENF
The series is described as follows: Oxidase Inhibition Assay (PMA-stimulated superoxide-mediated reduction of Cytochrome c, whole cells). The note with it: human neutrophils, PMA 0.5 μM, absorbance at 550 nm. The format is cell-based. As to the method:
Whole cells (human neutrophils) are incubated with a pro-inflammatory agonist phorbol myristate acetate (PMA) in the presence or absence of test compound to measure the superoxide-mediated reduction of Cytochrome c at 550 nm. Inhibition of the oxidase is determined by a decreased absorbance at 550 nm, in response to test compound, relative to the absorbance seen with a vehicle control.
The buffy coat from one unit of blood is split evenly into four 50 mL tubes. To each tube 30 mL 3% Dextran (in 0.9% NaCl) is added and the tubes are inverted to mix. Tubes are allowed to sit undisturbed for 25 minutes. The resulting supernatant is recovered into four fresh tubes and centrifuged for 10 minutes at 600×g, 4° C. The supernatant is discarded and pellets are resuspended in 35 mL 0.9% saline. 10 mL Ficoll-Paque PLUS (Pharmacia Biotech AB) is layered beneath the cell suspension and centrifuged at 600×g for 40 minutes at room temperature. The supernatant is again discarded and tubes are tapped to loosen the resulting pellets. 20 mL 0.2% ice cold saline is added for 30 seconds followed by 20 mL 1.6% ice cold saline to lyse the remaining erythrocytes in the pellets. The pellets are centrifuged for 10 minutes at 600×g, 4° C., and the supernatant is discarded. The neutrophil pellets are resuspended in HBSS-glucose buffer (1 mg/mL), adding 2.5 mL to each tube for a total volume of 10 mL. The cell suspension is then counted on a hemocytometer.
The cell suspension is diluted to a concentration of 5×10^6/mL in HBSS-glucose and treated with 1 μg/mL Cytochalasin B (5 mg/mL DMSO) for 10 minutes at 37° C. in a shaking water bath. Cells are diluted to 6×10^5 cells/mL in 92 μM Cytochrome C for a final concentration of 5×10^4 cells/well.
The NADPH-oxidase assay is run on a Biomek 2000 workstation. The workstation adds 2.5 μL compound per well from source plates plus 12.5 μL per well 4 μM PMA (agonist). This volume is brought up to 100 μL total per well in the assay plates upon the addition of the prepared cells (85 μL). The final concentration of drug is 25 μM and PMA is 0.5 μM under these conditions.
The QC curve is a dose-response curve (from about 31.25 nM to about 4000 nM) for competitive binding against a known oxidase inhibitor such as DPI (diphenylene iodonium chloride). The format used for each compound tested is as follows:
The plates are incubated for 1 hour at 37° C. without CO2. The plates are then incubated at room temperature for 30 minutes and the absorbance is read at 550 nm.

Counter-ions that a name gives are not always drawn.

The text below walks through data of patent publication US7476672B2, “Acetylenic compounds useful in treating inflammatory disorders” (Janssen Pharmaceutica N.V., priority 2002, dated 2009).

A word on the IC50: it is the concentration that gives 50% inhibition. Read a low IC50 as inhibition by little substance. As a reminder, the melting point is the temperature, or range, at which the solid turns liquid.

Molecule `Cc1ccc(C#Cc2ccc(OCC(C)NCc3ccc(CN)cc3)c(Cl)c2)cc1` (centres unmarked) [Compound 24, N-[2-[2-chloro-4-[(4-methylphenyl)ethynyl]phenoxy]-1-methylethyl]-1,4-benzenedimethanamine] gave an IC50 at NADPH-oxidase of 0.7 µM.

`CC(COc1ccc(C#Cc2ccc(Cl)cc2)cc1Cl)NCc1ccc(CN)cc1` (centres unmarked) (as salt: HCl) [Compound 25, N-[2-[2-chloro-4-[(4-chlorophenyl)ethynyl]phenoxy]-1-methylethyl]-1,4-benzenedimethanamine] registered a melting point above 300 °C.

The molecule `CCCCCCNCc1ccc(CNCCOc2ccc(C#Cc3ccc(Cl)cc3)cc2C)cc1` [Compound 12, N^1-[2-[4-[(4-chlorophenyl)ethynyl]-2-methylphenoxy]ethyl]-N^4-hexyl-1,4-benzenedimethanamine] returned an IC50 on NADPH-oxidase of 11.1 µM. On the same count and under the same terms, the figure for `CC(C)NCc1ccc(CNCCOc2ccc(C#Cc3ccc(Cl)cc3)cc2)cc1` [Compound 4, N^1-[2-[4-[(4-chlorophenyl)ethynyl]phenoxy]ethyl]-N^4-(1-methylethyl)-1,4-benzenedimethanamine] is 1.2 µM. Still for that read-out and setting: the figure for `Cc1cc(C#Cc2ccc(Cl)cc2)ccc1OCCNCc1ccc(CNCc2ccccc2)cc1` [Compound 8, N^1-[2-[4-[(4-chlorophenyl)ethynyl]-2-methylphenoxy]ethyl]-N^4-(phenylmethyl)-1,4-benzenedimethanamine] is 3.24 µM.

As to `CC(COc1ccc(C#Cc2ccccc2)cc1Cl)NCc1ccc(CN)cc1` (centres unmarked) [Compound 22, N-[2-[2-chloro-4-(phenylethynyl)phenoxy]-1-methylethyl]-1,4-benzenedimethanamine], 0.85 µM corresponded to half-maximal inhibition against NADPH-oxidase (IC50).

For `Cc1cc(C#Cc2ccc(Cl)cc2)ccc1OCCNCc1ccc(CNC(C)(C)C)cc1` [Compound 19, N^1-[2-[4-[(4-chlorophenyl)ethynyl]-2-methylphenoxy]ethyl]-N^4-(1,1-dimethylethyl)-1,4-benzenedimethanamine], the IC50 at NADPH-oxidase amounted to 3.33 µM. Still for that read-out and setting: the figure for `Cc1cc(C#Cc2ccc(Cl)cc2)ccc1OCCNCc1ccc(CNCCC(C)C)cc1` [Compound 6, N^1-[2-[4-[(4-chlorophenyl)ethynyl]-2-methylphenoxy]ethyl]-N^4-(3-methylbutyl)-1,4-benzenedimethanamine] is 2.28 µM. As to `Cc1cc(C#Cc2ccc(Cl)cc2)ccc1OCC(C)NCc1ccc(CN)cc1` (centres unmarked) (as salt: HCl) [Compound 1, N-[2-[4-[(4-chlorophenyl)ethynyl]-2-methylphenoxy]-1-methylethyl]-1,4-benzenedimethanamine], the melting point was above 300 °C. In turn, `CC(COc1ccc(C#Cc2ccc(Cl)cc2)cc1Cl)NCc1ccc(CN)cc1` (centres unmarked) [Compound 25, N-[2-[2-chloro-4-[(4-chlorophenyl)ethynyl]phenoxy]-1-methylethyl]-1,4-benzenedimethanamine] displayed a half-maximal inhibitory concentration (IC50) on NADPH-oxidase of 0.7 µM. `Cc1ccc(C#Cc2ccc(OCC(C)NCc3ccc(CN)cc3)c(Cl)c2)cc1` (centres unmarked) (as salt: HCl) [Compound 24, N-[2-[2-chloro-4-[(4-methylphenyl)ethynyl]phenoxy]-1-methylethyl]-1,4-benzenedimethanamine] showed a melting point above 300 °C. `CC(COc1ccc(C#Cc2ccc(F)cc2)cc1Cl)NCc1ccc(CN)cc1` (centres unmarked) [Compound 26, N-[2-[2-chloro-4-[(4-fluorophenyl)ethynyl]phenoxy]-1-methylethyl]-1,4-benzenedimethanamine]: the IC50 on NADPH-oxidase came to 1.05 µM. That is a single-digit micromolar value. On the same count and under the same terms, the figure for `Cc1cc(C#Cc2ccc(Cl)cc2)ccc1OCCNCc1ccc(CNCCCN2CCOCC2)cc1` [Compound 15, N^1-[2-[4-[(4-chlorophenyl)ethynyl]-2-methylphenoxy]ethyl]-N^4-[3-(4-morpholinyl)propyl]-1,4-benzenedimethanamine] is 1.61 µM. Still for that read-out and setting: the figure for `CCCCCCCNCc1ccc(CNCCOc2ccc(C#Cc3ccc(Cl)cc3)cc2C)cc1` [Compound 9, N^1-[2-[4-[(4-chlorophenyl)ethynyl]-2-methylphenoxy]ethyl]-N^4-heptyl-1,4-benzenedimethanamine] is 6.66 µM; for `CCC(COc1ccc(C#Cc2ccc(Cl)cc2)cc1C)NCc1ccc(CN)cc1` (centres unmarked) [Compound 23, N-[1-[[4-[(4-chlorophenyl)ethynyl]-2-methylphenoxy]methyl]propyl]-1,4-benzenedimethanamine] it is 0.8 µM; for `Cc1cc(C#Cc2ccc(Cl)cc2)ccc1OCCNCc1ccc(CN)cc1` [Compound 21, N-[2-[4-[(4-chlorophenyl)ethynyl]-2-methylphenoxy]ethyl]-1,4-benzenedimethanamine] it is 1.77 µM. `CCC(COc1ccc(C#Cc2ccc(Cl)cc2)cc1C)NCc1ccc(CN)cc1` (centres unmarked) (as salt: HCl) [Compound 23, N-[1-[[4-[(4-chlorophenyl)ethynyl]-2-methylphenoxy]methyl]propyl]-1,4-benzenedimethanamine]: the melting point lay in the range of 261.5 to 264 °C. At NADPH-oxidase, `Cc1cc(C#Cc2ccc(Cl)cc2)ccc1OCCNCc1ccc(CNCCCc2ccccc2)cc1` [Compound 10, N^1-[2-[4-[(4-chlorophenyl)ethynyl]-2-methylphenoxy]ethyl]-N^4-(3-phenylpropyl)-1,4-benzenedimethanamine] came in with a half-maximal inhibitory concentration (IC50) of 8.34 µM. Same read-out and setting: next, `CN(C)CCCNCc1ccc(CNCCOc2ccc(C#Cc3ccc(Cl)cc3)cc2)cc1` [Compound 7, N^1-[2-[4-[(4-chlorophenyl)ethynyl]phenoxy]ethyl]-N^4-[3-(dimethylamino)propyl]-1,4-benzenedimethanamine]: 0.77 µM; `CC(C)CCNCc1ccc(CNCCOc2ccc(C#Cc3ccc(Cl)cc3)cc2)cc1` [Compound 5, N^1-[2-[4-[(4-chlorophenyl)ethynyl]phenoxy]ethyl]-N^4-(3-methylbutyl)-1,4-benzenedimethanamine]: 2.17 µM; `CCCNCc1ccc(CNCCOc2ccc(C#Cc3ccc(Cl)cc3)cc2C)cc1` [Compound 3, N^1-[2-[4-[(4-chlorophenyl)ethynyl]-2-methylphenoxy]ethyl]-N^4-propyl-1,4-benzenedimethanamine]: 1.38 µM.

Consider `Cc1cc(C#Cc2ccc(Cl)cc2)ccc1OCCNCc1ccc(CNCCCOC(=O)C2CCCCN2)cc1` (centres unmarked) [Compound 18, 3-[[[4-[[[2-[4-[(4-chlorophenyl)ethynyl]-2-methylphenoxy]ethyl]amino]methyl]phenyl]methyl]amino]propyl ester 2-piperidinecarboxylic acid], for which the IC50 against NADPH-oxidase is 3.01 µM. This IC50 lies about 2.2-fold higher than the previous one.

On NADPH-oxidase, `Cc1cc(C#Cc2ccc(Cl)cc2)ccc1OCC(C)NCc1ccc(CN)cc1` (centres unmarked) [Compound 1, N-[2-[4-[(4-chlorophenyl)ethynyl]-2-methylphenoxy]-1-methylethyl]-1,4-benzenedimethanamine] had an IC50 of 0.7 µM. This IC50 lies about 4.3-fold lower than the previous one. The same measure, in the same setting: the figure for `Cc1cc(C#Cc2ccc(Cl)cc2)ccc1OCCNCc1ccc(CNCCN2CCOCC2)cc1` [Compound 16, N^1-[2-[4-[(4-chlorophenyl)ethynyl]-2-methylphenoxy]ethyl]-N^4-[2-(4-morpholinyl)ethyl]-1,4-benzenedimethanamine] is 2.66 µM; for `Cc1cc(C#Cc2ccc(Cl)cc2)ccc1OCCNCc1ccc(CNCCN2CCCC2)cc1` [Compound 14, N^1-[2-[4-[(4-chlorophenyl)ethynyl]-2-methylphenoxy]ethyl]-N^4-[2-(1-pyrrolidinyl)ethyl]-1,4-benzenedimethanamine] it is 2.35 µM. As for `CCCNCc1ccc(CNCCOc2ccc(C#Cc3ccc(Cl)cc3)cc2)cc1` [Compound 2, N^1-[2-[4-[(4-chlorophenyl)ethynyl]phenoxy]ethyl]-N^4-propyl-1,4-benzenedimethanamine], on NADPH-oxidase, the concentration for half-maximal inhibition (IC50) was 2.07 µM. The IC50 values of the last two molecules are within 1.5-fold of each other.
